Data set [1] concerns HMC3 (human microglia) cell line. Put plainly: pHrodo-myelin phagocytosis/cell viability high content imaging assay: phagocytosis signal. The data set is classed as cell-based. The essentials:
(§1)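 Cells receive pHrodo-myelin, then are imaged at high content approximately 22 hours later. Phagocytosis signal and viability are captured in the same run. Three measurements are extracted per well.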

Data set [2] concerns protein product expressed by the gene target. The note with it: cited from earlier work.
Data set [3] in a line: Kinetic solubility in aqueous buffer pH 7.4 by total chemiluminescent nitrogen determination (Analiza). The settings on record: aqueous buffer, pH 7.4, aqueous buffer, kinetic from dmso stock.
In data set [4] the test system is BV2 (mouse microglia) cell line. Put plainly: pHrodo-myelin phagocytosis/cell viability high content imaging assay: phagocytosis signal. The data set is classed as cell-based. The essentials: as §1
The test system is the same in data set [5]. Kind of data set: pHrodo-myelin phagocytosis/cell viability high content imaging assay: viability (cell count, nuclear area, nuclear intensity). The essentials: (§2)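 Immortalized microglia are treated with compound (10 μM, single concentration) for 48 h, the final 20 h alongside pHrodo-myelin. Data are the mean of duplicates, reported as % of untreated control.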

For data set [6], the system named is HMC3 (human microglia) cell line. Described as above. The essentials:
as §2

[7] abbreviates: gene target APP, ref PubMed 22323718.
[8] abbreviates: BV2 cells, 10 uM compound, 48 hours treatment.
[9] abbreviates: HMC3 cells, 10 uM compound, 48 hours treatment.

Converted amounts (≈) assume the structure as drawn. Where two headings read alike, the source gives them in different places. Some results are limits rather than exact numbers.

Regarding `C[C@H](N/C(=N\c1cccc2ncccc12)NC#N)c1ccccc1` [A-804598], the “Inhibition of human microglial phagocytosis at 10 μM (<70% control)” value in data set [1] (10 μM, HMC3) is listed as “Y (The compound was found to inhibit phagocytosis (response threshold: <70% control) when human immortalized microglial cells were dosed at 10 μM (Y: yes))”. Besides, the “Reported on-target biochemical potency” value in data set [2] (target P2X7, ref PubMed 18602931, 28716092, 28871219, 29934546) is listed as 10 nM. In data set [3], this molecule registered a kinetic solubility of 31.1 µM (≈ 9.81 µg/mL).

As for `Nc1nc(Nc2ccc3c(c2)CC[C@@H](N2CCCC2)CC3)nn1-c1cc2c(nn1)-c1ccccc1CCC2` [Bemcentinib (BGB324)], in data set [4] (BV2, 10 μM), the “Inhibition of mouse microglial phagocytosis at 10 μM (<70% control)” value is “Y (The compound was found to inhibit phagocytosis (response threshold: <70% control) when murine immortalized microglial cells were dosed at 10 μM (Y: yes))”. Besides, the “Inhibition of human microglial phagocytosis at 10 μM (<70% control)” value in data set [1] (HMC3, 10 μM) was “Y (The compound was found to inhibit phagocytosis (response threshold: <70% control) when human immortalized microglial cells were dosed at 10 μM (Y: yes))”. For the same molecule, the “Mouse microglial cytotoxicity at 10 μM (<70% control)” value in data set [5] (BV2, 10 μM) is “Y (The compound was found to be cytotoxic (cell count threshold: <70% control) when murine immortalized microglial cells were dosed at 10 μM (Y: yes))”. Further, the “Human microglial cytotoxicity at 10 μM (<70% control)” value in data set [6] (HMC3, 10 μM) is “Y (The compound was found to be cytotoxic (cell count threshold: <70% control) when human immortalized microglial cells were dosed at 10 μM (Y: yes))”. Moreover, the “Reported on-target biochemical potency” value in data set [2] is 14 nM. Moreover, the solubility (kinetic) in data set [3] came to 82.9 µM (≈ 42 µg/mL).

With `Cc1ccc(F)c(NC(=O)Nc2ccc(-c3cccc4[nH]nc(N)c34)cc2)c1` [Linifanib], in data set [4] (BV2, 10 μM), the “Stimulation of mouse microglial phagocytosis at 10 μM (>150% control)” value (“Stimulation … (>150% control)” below) was “Y (The compound was found to stimulate phagocytosis (response threshold: >150% control) when murine immortalized microglial cells were dosed at 10 μM (Y: yes))”. Moreover, the “Inhibition of human microglial phagocytosis at 10 μM (<70% control)” value in data set [1] (HMC3, 10 μM) is recorded as “Y (The compound was found to inhibit phagocytosis (response threshold: <70% control) when human immortalized microglial cells were dosed at 10 μM (Y: yes))”. For the same molecule, in data set [5] (BV2, 10 μM), the “Mouse microglial cytotoxicity at 10 μM (<70% control)” value was “Y (The compound was found to be cytotoxic (cell count threshold: <70% control) when murine immortalized microglial cells were dosed at 10 μM (Y: yes))”. The “Human microglial cytotoxicity at 10 μM (<70% control)” value in data set [6] (HMC3, 10 μM) is “Y (The compound was found to be cytotoxic (cell count threshold: <70% control) when human immortalized microglial cells were dosed at 10 μM (Y: yes))”. Further, in data set [2] (gene target CYP19A1, ref Probe Miner), the “Reported on-target biochemical potency” value is 5 nM. This molecule also showed a solubility (kinetic) in data set [3] of 0.6 µM (≈ 0.225 µg/mL).

For `Cc1ccc(NC(=O)c2ccc(CN3CCN(C)CC3)cc2)cc1Nc1nc(-c2cccnc2)cs1` [Masitinib (AB1010)], the “Inhibition of mouse microglial phagocytosis at 10 μM (<70% control)” value in data set [4] (10 μM, BV2) is reported as “Y (The compound was found to inhibit phagocytosis (response threshold: <70% control) when murine immortalized microglial cells were dosed at 10 μM (Y: yes))”. The “Inhibition of human microglial phagocytosis at 10 μM (<70% control)” value in data set [1] (10 μM, HMC3) is listed as “Y (The compound was found to inhibit phagocytosis (response threshold: <70% control) when human immortalized microglial cells were dosed at 10 μM (Y: yes))”. Besides, the “Mouse microglial cytotoxicity at 10 μM (<70% control)” value in data set [5] (10 μM, BV2) is on record as “Y (The compound was found to be cytotoxic (cell count threshold: <70% control) when murine immortalized microglial cells were dosed at 10 μM (Y: yes))”. In addition, the “Reported on-target biochemical potency” value in data set [2] (target KIT, ref PubMed PMC2746281) was 200 nM; in data set [2] (target LYN, ref PubMed PMC2746281), 510 nM; in data set [2] (target PDGFRα, ref PubMed PMC2746281) it was 540 nM; in data set [2] (target PDGFRβ, ref PubMed PMC2746281), 800 nM. The same molecule had a solubility (kinetic) in data set [3] of 93.9 µM (≈ 46.8 µg/mL).

In the case of `O=c1ncn2nc(Sc3ccc(F)cc3F)ccc2c1-c1c(Cl)cccc1Cl` [Neflamapimod (VX-745)], the “Stimulation … (>150% control)” value in data set [4] (10 μM, BV2) was “Y (The compound was found to stimulate phagocytosis (response threshold: >150% control) when murine immortalized microglial cells were dosed at 10 μM (Y: yes))”. Also, the “Reported on-target biochemical potency” value is recorded as 220 nM in data set [2] (target MAPK11, ref PubMed 24900264) and 10 nM in data set [2] (target MAPK14, ref PubMed 24900264). Moreover, the kinetic solubility in data set [3] worked out at 48.1 µM (≈ 21 µg/mL).

`CC(C)[C@H](O)C(=O)N[C@@H](C)C(=O)N[C@@H]1C(=O)N(C)CCc2ccccc21` [Semagacestat (LY450139)]: the “Stimulation … (>150% control)” value in data set [4] (BV2, 10 μM) is “Y (The compound was found to stimulate phagocytosis (response threshold: >150% control) when murine immortalized microglial cells were dosed at 10 μM (Y: yes))”. Further, in data set [2] (setting [7]), the “Reported on-target biochemical potency (nM): Aβ38” value is listed as 12 nM, the “Reported on-target biochemical potency (nM): Aβ40” value is reported as 12.1 nM and the “Reported on-target biochemical potency (nM): Aβ42” value is reported as 10.9 nM. In data set [3], this molecule gave a kinetic solubility of 176 µM (≈ 63.8 µg/mL).

`CN(C)c1ccc2c(c1)Sc1cc(N(C)C)ccc1N2.CS(=O)(=O)O.CS(=O)(=O)O` [TRx0237 (LMTX) mesylate]: the “Inhibition of human microglial phagocytosis at 10 μM (<70% control)” value in data set [1] (10 μM, HMC3) is given as “Y (The compound was found to inhibit phagocytosis (response threshold: <70% control) when human immortalized microglial cells were dosed at 10 μM (Y: yes))”. Moreover, the “Mouse microglial cytotoxicity at 10 μM (<70% control)” value in data set [5] (10 μM, BV2) is reported as “Y (The compound was found to be cytotoxic (cell count threshold: <70% control) when murine immortalized microglial cells were dosed at 10 μM (Y: yes))”. For the same molecule, the “Human microglial cytotoxicity at 10 μM (<70% control)” value in data set [6] (10 μM, HMC3) was “Y (The compound was found to be cytotoxic (cell count threshold: <70% control) when human immortalized microglial cells were dosed at 10 μM (Y: yes))”. Also, the “Reported on-target biochemical potency” value in data set [2] (target gene MAPT, ref PubMed 26809554) is 160 nM. Further, the kinetic solubility in data set [3] amounted to 115 µM.

In the case of `CCOC(=O)N1c2ccc(C(F)(F)F)cc2[C@@H](N(Cc2cc(C(F)(F)F)cc(C(F)(F)F)c2)C(=O)OC)C[C@H]1CC` [Torcetrapib], in data set [2] (gene target CETP, ref Probe Miner, PubMed 17984165, 19164467), the “Reported on-target biochemical potency” value is 7.72 nM. This molecule gave a solubility (kinetic) in data set [3] of less than 1.1 µM.

For `CCCCNc1ncc2c(-c3ccc(CN4CCN(C)CC4)cc3)cn([C@H]3CC[C@H](O)CC3)c2n1` [UNC2025C, reference compound], the “Inhibition of mouse microglial phagocytosis at 10 μM (<70% control)” value in data set [4] (10 μM, BV2) was “Y (The compound was found to inhibit phagocytosis (response threshold: <70% control) when murine immortalized microglial cells were dosed at 10 μM (Y: yes))”. Moreover, the “phagocytosis in mouse microglial cells (< 70% control inhibition, > 150% control stimulation)” value in data set [4] (BV2, 10 μM, pHrodo-myelin) is on record as “inhibited”. For the same molecule, the “4. Phagocytosis (% control)” value in data set [4] (BV2 cells, 10 uM compound, 48 hours treatment, pHrodo-myelin final 20 hours) is listed as 0.168 % control. Moreover, the “Inhibition of human microglial phagocytosis at 10 μM (<70% control)” value in data set [1] (10 μM, HMC3) is recorded as “Y (The compound was found to inhibit phagocytosis (response threshold: <70% control) when human immortalized microglial cells were dosed at 10 μM (Y: yes))”. Also, the “phagocytosis in human microglial cells (< 70% control inhibition, > 150% control stimulation)” value in data set [1] (HMC3, 10 μM, pHrodo-myelin) was “inhibited”. The “4. Phagocytosis (% control)” value in data set [1] (HMC3 cells, 10 uM compound, 48 hours treatment, pHrodo-myelin final 20 hours) was 1.1 % control. The “Mouse microglial cytotoxicity at 10 μM (<70% control)” value in data set [5] (10 μM, BV2) is “Y (The compound was found to be cytotoxic (cell count threshold: <70% control) when murine immortalized microglial cells were dosed at 10 μM (Y: yes))”. Moreover, in data set [5] (setting [8]), the “1. Cell count (% control)” value turned out to be 17.3 % control, the “2. Nuclear Area (% Control)” value is 101.1 % Control and the “3. Nuclear DNA Intensity (% control)” value came to 19.1 % control. For the same molecule, in data set [6] (10 μM, HMC3), the “Human microglial cytotoxicity at 10 μM (<70% control)” value was “Y (The compound was found to be cytotoxic (cell count threshold: <70% control) when human immortalized microglial cells were dosed at 10 μM (Y: yes))”. Moreover, in data set [6] (setting [9]), the “1. Cell count (% control)” value stood at 38.6 % control, the “2. Nuclear Area (% Control)” value is listed as 85.2 % Control and the “3. Nuclear DNA Intensity (% control)” value was determined as 178.5 % control. In addition, the “Reported on-target biochemical potency” value in data set [2] (target MERTK, ref PubMed 25068800, 27649555) was 0.74 nM. This molecule also came in with a kinetic solubility in data set [3] of 43.4 µM (≈ 20.7 µg/mL).

For the molecule `CN1C(=N)N[C@](C)(c2cc(NC(=O)c3ccc(F)cn3)ccc2F)CS1(=O)=O` [Verubecestat (MK-8931)], in data set [2] (gene target BACE1, ref PubMed 27418961, 27023706), the “Reported on-target biochemical potency (nM): BACE1” value is given as 1.8 nM. For the same molecule, the “Reported on-target biochemical potency (nM): BACE2” value in data set [2] (gene target BACE2, ref PubMed 27418961, 27023706) was 0.37 nM. This molecule also yielded a solubility (kinetic) in data set [3] of 154 µM (≈ 63.3 µg/mL).

Broadly, the solubility (kinetic) is solubility judged after dilution from a stock solution rather than from solid.

The record behind these values is PMC9019904, “AD Informer Set: Chemical tools to facilitate Alzheimer's disease drug discovery” (Alzheimer's & Dementia : Translational Research & Clinical …, 2022).
